Results reported in patent US7662814B2, “4-aminothieno[2,3-d]pyrimidine-6-carbonitrile derivatives as PDE7 inhibitors” (Laboratorios Almirall, S.A., priority 2003, dated 2010).

Columns and labels:
[1] = test system: PDE7; assay: PDE7 Assay Procedure ([3H]-cAMP SPA); assay type: biochemical; details: PDE7 inhibition, 15 nM 3',5'[3H]-cAMP, 1 hour at room temperature
Procedure: All compounds are resuspended in DMSO at a stock concentration of 10 mM. […] All dilutions are performed in 96 well plates.
For each reaction, 10 microliters of the diluted compounds are poured into “low binding” assay plates. 80 microliters of a reaction mixture containing 50 mM Tris pH 7.5, 8.3 mM MgCl2, 1.7 mM EGTA, and 15 nM 3′,5′[3H]-cAMP (around 150000 dpm) are added to each well. The reaction is initiated by adding 10 microliters of a solution containing PDE7 to the reaction mixture. The plate is then incubated under stirring for 1 hour at room temperature. After incubation the reaction is stopped with 50 microlitres (0.89 mg) of PDE SPA beads (Amersham Pharmacia Biotech RPNQ0150), and the resulting mixture is allowed to settle for 20 minutes before counting in a microtitre plate counter.

COc1ccc(-c2nc(N3CCOCC3)c3c(C)c(C#N)sc3n2)cc1OC [Example 31, 2-(3,4-Dimethoxyphenyl)-5-methyl-4-morpholin-4-ylthieno[2,3-d]pyrimidine-6-carbonitrile]
melting point: 194 to 196 °C
IC50 [1]: < 1 µM
